Molecular target: T1, human TRPV1 receptor (Homo sapiens, UniProt Q8NER1)
T1 construct: expressed in transfected cells
Assay: Ca2+ influx assay (FLIPR, Fluo-4 AM) of capsaicin-evoked response in cells expressing recombinant TRPV1
Assay type: cell-based
Settings: 1321N1 human astrocytoma cells expressing hTRPV1; inhibition of 0.05 μM capsaicin-induced [Ca2+]i increase
Experimental: Dulbecco's modified Eagle medium (D-MEM) (with 4.5 mg/mL glucose) and fetal bovine serum were obtained from Hyclone Laboratories, Inc. (Logan, Utah). Dulbecco's phosphate-buffered saline (D-PBS) (with 1 mg/mL glucose and 3.6 mg/l Na pyruvate, without phenol red), L-glutamine, hygromycin B, and Lipofectamine® were obtained from Life Technologies (Grand Island, N.Y.). G418 sulfate was obtained from Calbiochem-Novabiochem Corp. (San Diego, Calif.). Capsaicin (8-methyl-N-vanillyl-6-nonenamide) was obtained from Sigma-Aldrich, Co. (St. Louis, Mo.). Fluo-4 AM (N-[4-[6-[(acetyloxy)methoxy]-2,7-difluoro-3-oxo-3H-xanthen-9-yl]-2-[2-[2-[bis[2-[(acetyloxy)methoxy]-2-oxyethyl]amino]-5-methylphenoxy]ethoxy]phenyl]-N-[2-[(acetyloxy)methoxy]-2-oxyethyl]-glycine, (acetyloxy)methyl ester) was purchased from Molecular Probes (Eugene, Oreg.).
The cDNAs for the human TRPV1 receptor were isolated by reverse transcriptase-polymerase chain reaction (RT-PCR) from human small intestine poly A+RNA supplied by Clontech (Palo Alto, Calif.) using primers designed surrounding the initiation and termination codons identical to the published sequences (Hayes et al. Pain 2000, 88, 205-215). The resulting cDNA PCR products were subcloned into pCIneo mammalian expression vector (Promega) and fully sequenced using fluorescent dye-terminator reagents (Prism, Perkin-Elmer Applied Biosystems Division) and a Perkin-Elmer Applied Biosystems Model 373 DNA sequencer or Model 310 genetic analyzer. Expression plasmids encoding the hTRPV1 cDNA were transfected individually into 1321N1 human astrocytoma cells using Lipofectamine®. Forty-eight hours after transfection, the neomycin-resistant cells were selected with growth medium containing 800 μg/mL Geneticin (Gibco BRL). Surviving individual colonies were isolated and screened for TRPV1 receptor activity. Cells expressing recombinant homomeric TRPV1 receptors were maintained at 37° C. in D-MEM containing 4 mM L-glutamine, 300 μg/mL G418 (Cal-biochem) and 10% fetal bovine serum under a humidified 5% CO2 atmosphere.
The functional activity of compounds at the TRPV1 receptor was determined with a Ca^2+ influx assay and measurement of intracellular Ca^2+ levels ([Ca^2+]i). All compounds were tested over an 11-point half-log concentration range. Compound solutions were prepared in D-PBS (4× final concentration), and diluted serially across 96-well v-bottom tissue culture plates using a Biomek 2000 robotic automation workstation (Beckman-Coulter, Inc., Fullerton, Calif.). A 0.2 μM solution of the TRPV1 agonist capsaicin was also prepared in D-PBS. The fluorescent Ca^2+ chelating dye Fluo-4 AM was used as an indicator of the relative levels of [Ca^2+]i in a 96-well format using a Fluorescence Imaging Plate Reader (FLIPR) (Molecular Devices, Sunnyvale, Calif.). Cells were grown to confluency in 96-well black-walled tissue culture plates. Then, prior to the assay, the cells were loaded with 100 μL per well of Fluo-4 AM (2 μM, in D-PBS) for 1-2 hours at 23° C. Washing of the cells was performed to remove extracellular Fluo-4 AM (2×1 mL D-PBS per well), and afterward, the cells were placed in the reading chamber of the FLIPR instrument. 50 μL of the compound solutions were added to the cells at the 10 second time mark of the experimental run. Then, after a 3-minute time delay, 50 μL of the capsaicin solution was added at the, 190 second time mark (0.05 μM final concentration)(final volume=200 μL) to challenge the TRPV1 receptor. Time length of the experimental run was 240 seconds. Fluorescence readings were made at 1 to 5 second intervals over the course of the experimental run. The peak increase in relative fluorescence units (minus baseline) was calculated from the 190 second time mark to the end of the experimental run, and expressed as a percentage of the 0.05 μM capsaicin (control) response. […]

T1 sequence (Q8NER1 whole entry): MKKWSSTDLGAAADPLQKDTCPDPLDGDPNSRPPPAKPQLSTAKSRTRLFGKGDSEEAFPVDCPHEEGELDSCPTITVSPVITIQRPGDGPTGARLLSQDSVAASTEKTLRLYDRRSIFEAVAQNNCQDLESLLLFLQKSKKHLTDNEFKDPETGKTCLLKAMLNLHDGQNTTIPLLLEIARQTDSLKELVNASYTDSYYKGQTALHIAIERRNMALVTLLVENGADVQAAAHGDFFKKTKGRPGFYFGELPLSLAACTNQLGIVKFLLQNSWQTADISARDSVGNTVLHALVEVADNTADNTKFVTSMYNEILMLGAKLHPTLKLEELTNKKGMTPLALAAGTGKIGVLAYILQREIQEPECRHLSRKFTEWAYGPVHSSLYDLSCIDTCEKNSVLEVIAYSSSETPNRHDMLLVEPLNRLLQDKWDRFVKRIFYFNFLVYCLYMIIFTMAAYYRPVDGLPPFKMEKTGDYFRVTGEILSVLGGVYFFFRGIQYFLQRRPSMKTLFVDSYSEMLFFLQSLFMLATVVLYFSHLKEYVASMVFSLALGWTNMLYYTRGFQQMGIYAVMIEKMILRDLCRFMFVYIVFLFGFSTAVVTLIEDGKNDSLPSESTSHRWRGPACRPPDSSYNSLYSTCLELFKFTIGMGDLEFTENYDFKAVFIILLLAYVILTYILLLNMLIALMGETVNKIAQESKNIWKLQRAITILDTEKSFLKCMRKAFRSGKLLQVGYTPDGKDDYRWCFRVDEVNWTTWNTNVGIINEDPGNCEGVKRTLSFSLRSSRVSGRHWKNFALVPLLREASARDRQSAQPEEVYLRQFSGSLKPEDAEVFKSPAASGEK

| SMILES | IC50 |
| --- | --- |
| C[C@@H]1CN(c2ncccc2C(F)(F)F)CC=C1C(=O)Nc1ccc(C(F)(F)F)cc1 [Example 4, (3S)-3-methyl-3′-(trifluoromethyl)-N-[4-(trifluoromethyl)phenyl]-3,6-dihydro-2H-1,2′-bipyridine-4-carboxamide] | 26 nM |
| Cc1cccnc1N1CC=C(C(=O)Nc2ccc(S(=O)(=O)C(F)(F)F)cc2)[C@H](C)C1 [Example 3, (3S)-3,3′-dimethyl-N-{4-[(trifluoromethyl)sulfonyl]phenyl}-3,6-dihydro-2H-1,2′-bipyridine-4-carboxamide] | 20 nM |
| C[C@@H]1CN(c2ncccc2Cl)CC=C1C(=O)Nc1ccc(S(=O)(=O)C(F)(F)F)cc1 [Example 1, (3S)-3′-chloro-3-methyl-N-{4-[(trifluoromethyl)sulfonyl]phenyl}-3,6-dihydro-2H-1,2′-bipyridine-4-carboxamide] | 28 nM |
| C[C@H]1CN(c2ncccc2C(F)(F)F)CC=C1C(=O)Nc1ccc(C(C)(C)C#N)cc1 (single isomer, unassigned) [Example 14] | 710 nM |
| C[C@@H]1CN(c2ncccc2C(F)(F)F)CC=C1C(=O)Nc1ccc(C(C)(C)C#N)cc1 (single isomer, unassigned) [Example 13] | 89 nM |
| Cc1cccnc1N1CC=C(C(=O)Nc2ccc(C(C)(C)C#N)cc2)[C@H](C)C1 (single isomer, unassigned) [Example 17] | 13 nM |
| C[C@H]1CN(c2ncccc2C(F)(F)F)CC=C1C(=O)Nc1ccc(S(=O)(=O)C(F)(F)F)cc1 (single isomer, unassigned) [Example 12] | 640 nM |
| C[C@@H]1CN(c2ncccc2C(F)(F)F)CC=C1C(=O)Nc1ccc(S(=O)(=O)C(F)(F)F)cc1 (single isomer, unassigned) [Example 11] | 40 nM |
| Cc1cccnc1N1CC=C(C(=O)Nc2ccc(C(C)(C)C)cc2)[C@@H](C)C1 (single isomer, unassigned) [Example 16] | 620 nM |
| Cc1cccnc1N1CC=C(C(=O)Nc2ccc(C(F)(F)F)cc2)[C@@H](C)C1 (single isomer, unassigned) [Example 9] | 380 nM |
| C[C@H]1CN(c2ncccc2C(F)(F)F)CC=C1C(=O)Nc1ccc(C(F)(F)F)cc1 (single isomer, unassigned) [Example 10] | 480 nM |
| C[C@H]1CN(c2ncccc2Cl)CC=C1C(=O)Nc1ccc(C(F)(F)F)cc1 [Example 7, (3R)-3′-chloro-3-methyl-N-[4-(trifluoromethyl)phenyl]-3,6-dihydro-2H-1,2′-bipyridine-4-carboxamide] | 84 nM |
| C[C@@H]1CN(c2ncccc2Cl)CC=C1C(=O)Nc1ccc(C(F)(F)F)cc1 [Example 2, (3S)-3′-chloro-3-methyl-N-[4-(trifluoromethyl)phenyl]-3,6-dihydro-2H-1,2′-bipyridine-4-carboxamide] | 20 nM |
| Cc1cccnc1N1CC=C(C(=O)Nc2ccc(C(F)(F)F)nc2)[C@@H](C)C1 (single isomer, unassigned) [Example 20] | 3100 nM |
| Cc1cccnc1N1CC=C(C(=O)Nc2ccc(C(C)(C)C)cc2)[C@H](C)C1 (single isomer, unassigned) [Example 15] | 15 nM |
| Cc1cccnc1N1CC=C(C(=O)Nc2ccc(C(F)(F)F)cc2)[C@H](C)C1 [Example 8, (3S)-3,3′-dimethyl-N-[4-(trifluoromethyl)phenyl]-3,6-dihydro-2H-1,2′-bipyridine-4-carboxamide] | 63 nM |
| Cc1cccnc1N1CC=C(C(=O)Nc2ccc(S(=O)(=O)C(F)(F)F)cc2)[C@@H](C)C1 [Example 6, (3R)-3,3′-dimethyl-N-{4-[(trifluoromethyl)sulfonyl]phenyl}-3,6-dihydro-2H-1,2′-bipyridine-4-carboxamide] | 760 nM |
| Cc1cccnc1N1CC=C(C(=O)Nc2ccc(C(C)(C)C#N)cc2)[C@@H](C)C1 [Example 18, (3R)—N-(4-(2-cyanopropan-2-yl)phenyl)-3-methyl-1-(3-methylpyridin-2-yl)-1,2,3,6-tetrahydropyridine-4-carboxamide] | 1300 nM |
| Cc1cccnc1N1CC=C(C(=O)Nc2ccc(C(F)(F)F)nc2)[C@H](C)C1 (single isomer, unassigned) [Example 19] | 190 nM |
| C[C@H]1CN(c2ncccc2Cl)CC=C1C(=O)Nc1ccc(S(=O)(=O)C(F)(F)F)cc1 [Example 5, (3R)-3′-chloro-3-methyl-N-{4-[(trifluoromethyl)sulfonyl]phenyl}-3,6-dihydro-2H-1,2′-bipyridine-4-carboxamide] | 230 nM |
